Read-outs that look alike come from different tables or passages of the source. Square brackets hold non-standard residues; d marks the D form. Peptide text beside a SMILES is read from it. * marks the point of attachment. NHOctadecyl = CCCCCCCCCCCCCCCCCCN*; Cya = N[C@@H](CS(=O)(=O)O)C(=O)O; NMeF = CN[C@@H](Cc1ccccc1)C(=O)O; hPhe = N[C@@H](CCc1ccccc1)C(=O)O; Cha = N[C@@H](CC1CCCCC1)C(=O)O; Phg = N[C@H](C(=O)O)c1ccccc1; X8 = CCCCCCCCCCCCCCCCCCO*; Piperidide = C1CCN(*)CC1; X7 = O=C(CO*)OCc1ccccc1; PhAc = O=C(Cc1ccccc1)*; ODecyl = CCCCCCCCCCO*; X1 = CCCCCCCCCCCCCCO*; X4 = CCN(CC)C(=O)CO*; Bz = O=C(c1ccccc1)*; OBn = c1ccc(CO*)cc1; X5 = CCCCCCCCCCCCO*; Ahx = NCCCCCC(=O)O; X6 = O=C(O)CO*
Target: VLA-4 (Homo sapiens, UniProt P05556+P13612)
Sequence (P13612 34-1032): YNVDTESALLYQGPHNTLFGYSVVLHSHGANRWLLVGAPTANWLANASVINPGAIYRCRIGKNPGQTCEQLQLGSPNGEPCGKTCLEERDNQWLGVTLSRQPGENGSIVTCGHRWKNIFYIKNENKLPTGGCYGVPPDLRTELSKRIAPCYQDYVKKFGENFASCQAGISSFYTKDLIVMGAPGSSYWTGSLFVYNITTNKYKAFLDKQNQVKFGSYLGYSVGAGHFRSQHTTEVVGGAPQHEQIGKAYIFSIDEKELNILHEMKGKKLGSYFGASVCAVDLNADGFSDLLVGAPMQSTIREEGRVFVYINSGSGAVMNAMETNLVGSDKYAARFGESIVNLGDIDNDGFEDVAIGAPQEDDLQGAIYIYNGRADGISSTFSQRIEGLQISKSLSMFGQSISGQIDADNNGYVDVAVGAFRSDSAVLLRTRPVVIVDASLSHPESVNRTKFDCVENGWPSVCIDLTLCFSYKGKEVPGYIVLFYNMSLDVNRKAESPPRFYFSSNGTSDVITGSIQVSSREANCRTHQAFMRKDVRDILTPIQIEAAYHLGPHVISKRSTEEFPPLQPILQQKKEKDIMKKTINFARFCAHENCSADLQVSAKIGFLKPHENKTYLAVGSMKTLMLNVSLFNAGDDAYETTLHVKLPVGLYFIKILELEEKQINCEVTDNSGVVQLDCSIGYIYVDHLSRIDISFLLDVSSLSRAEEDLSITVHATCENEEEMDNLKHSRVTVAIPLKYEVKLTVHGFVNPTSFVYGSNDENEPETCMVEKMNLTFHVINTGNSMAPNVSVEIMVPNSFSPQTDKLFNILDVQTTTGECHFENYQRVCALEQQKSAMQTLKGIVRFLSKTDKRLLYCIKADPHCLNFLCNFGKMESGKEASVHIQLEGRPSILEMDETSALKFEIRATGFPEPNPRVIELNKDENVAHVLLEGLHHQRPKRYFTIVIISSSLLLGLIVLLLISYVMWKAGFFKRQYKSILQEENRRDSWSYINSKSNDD
Sequence (P05556 21-798): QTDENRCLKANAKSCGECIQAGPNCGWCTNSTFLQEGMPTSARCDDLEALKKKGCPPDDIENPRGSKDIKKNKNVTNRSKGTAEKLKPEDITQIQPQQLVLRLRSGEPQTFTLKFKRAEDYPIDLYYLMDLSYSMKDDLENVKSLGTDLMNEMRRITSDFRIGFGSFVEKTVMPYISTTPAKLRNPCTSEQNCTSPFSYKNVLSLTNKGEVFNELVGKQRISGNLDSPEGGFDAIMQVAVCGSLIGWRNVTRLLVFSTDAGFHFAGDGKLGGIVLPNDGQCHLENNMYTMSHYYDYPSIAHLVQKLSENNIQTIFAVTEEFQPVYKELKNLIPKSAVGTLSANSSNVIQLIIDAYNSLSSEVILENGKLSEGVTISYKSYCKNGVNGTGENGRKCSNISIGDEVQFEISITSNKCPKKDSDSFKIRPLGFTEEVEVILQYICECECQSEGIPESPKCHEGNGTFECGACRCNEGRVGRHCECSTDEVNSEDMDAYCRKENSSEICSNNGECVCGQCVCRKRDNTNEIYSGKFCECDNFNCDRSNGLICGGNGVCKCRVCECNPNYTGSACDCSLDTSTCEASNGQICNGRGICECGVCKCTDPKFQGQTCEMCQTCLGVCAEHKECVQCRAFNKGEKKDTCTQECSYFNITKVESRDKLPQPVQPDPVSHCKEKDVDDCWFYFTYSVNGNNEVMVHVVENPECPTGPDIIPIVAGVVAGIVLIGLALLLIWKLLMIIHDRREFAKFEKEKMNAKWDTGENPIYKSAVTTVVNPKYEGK
Test: In vitro binding assay: 51Cr-labeled Jurkat cells to solid phase-bound CS-1 compound (SEQ ID NO:1)
Type: cell-based
Set-up: inflammatory cells that contain the VLA-4 receptor [Jurkat cells; host or cells: Jurkat cells (human T lymphoblastic line)
Conditions: for Relative Potency (prodrug compound): before the prodrug compound is enzymatically converted to an active form, relative to SEQ ID NO:3 = 1
Protocol: Binding inhibition is measured here as a concentration of compound that inhibits one-half the binding between a standard number of Jurkat cells and a standard amount of CS-1 compound bound to the surface of a microtiter plate well. Those concentrations are conveniently expressed as IC50 values, smaller numbers indicating a lower concentration required to inhibit 50 percent binding and therefore greater potency. Further specifics of this assay are provided hereinafter.
Jurkat cells (ATCC TIB 152), a human T lymphoblastic line, labeled with ^51 chromium were used to assay in vitro binding inhibition provided by various compounds discussed herein.
The plates were prepared as follows: The 25-mer CS-1 compound (SEQ ID NO:1) dissolved at 0.5-1 μg/ml in a buffer of 0.1M NaHCO3 at pH 9.5 that also contained 10 μg/ml of bovine serum albumin (BSA) or a conjugate of the CS-1 compound linked to ovalbumin (CS-1-OVA) dissolved at 1-2.5 μg/ml in the same buffer was used as the substrate. Each well of the microtiter plates was coated with 50 μl of substrate or buffer alone for controls. The wells were permitted to dry out completely and were then rinsed twice with PBS at pH 7.4. Non-specific binding sites of each well were then blocked using 200 μl per well of RPMI/1 percent BSA for two hours at room temperature.
Jurkat cells (3-5×10^6 cells) were placed into a 15 ml Falcon™ round-bottom tube with a cap. The tube was centrifuged, and the extra medium was then removed.
Two hundred microliters of a ^51 Cr labeling solution were added to the centrifuged cells and maintained in contact with the cells for 90-120 minutes in a warm room. […] Longer contact times provide a greater amount of labeling but lower cell viability.
The labeled cells are washed with (i) complete medium, (ii) 1 mM EDTA/PBS and then (iii) RPM1/1 percent BSA free of serum components. The cells are centrifuged after each washing. The cells are finally resuspended in serum-free RPMI/1 percent BSA at a concentration of 1×10^6 viable cells/ml, which provides a concentration that is diluted by one-half in the assay.
Inhibitor compounds are prepared as stock solutions at 20 mg/ml in DMSO in 1.5 ml cryogenic screwcap vials, and were stored at -70° C. Using Flow™ round-bottom or V-bottom microtiter plates, the inhibitor compounds were prepared at twice the assay concentration in RPMI/1 percent BSA at 60 μl/well.
Four initial dilutions were typically used.
The ^51 Cr-labeled cells ([…] at 60 μl/well) were then admixed with the diluted compound solutions. The admixtures were maintained at room temperature (about 22° C.) for 30 minutes.
One hundred microliters of each inhibitor compound/cell admixture were transferred to the substrate-coated wells. This was done in triplicate for each dilution. The resulting plates were incubated for 30 minutes at 37° C. and then washed gently three times with RPMI/1 percent BSA at 200 μl/well. Binding was observed microscopically, particularly after the second wash.
The bound cells were then lysed by the addition of a 0.5 percent solution of sodium dodecylsulfate in water at 100 μl/well. The resulting solutions were then processed for counting and calculation of IC50 values following usual procedures.
The data of Table 1 are normalized to the binding of SEQ ID NO: 3. […] Multiple assays for the same compound were averaged.

[1] = binding inhibition potency (IC50) relative to standard compound of SEQ ID NO:3 = 1, about one-tenth or less assigned zero

| Compound | Relative Potency [1] | Relative Potency (prodrug compound) | other results |
| --- | --- | --- | --- |
| NC(=O)[C@H]1CCCN1C(=O)[C@H](Cc1ccccc1)NC(=O)[C@H](CC(=O)O)NC(=O)[C@H](CC1CCCCC1)NC(=O)c1ccccc1 [896.31] (Bz-[Cha]DF[dP]-NH2) | 11 | – | – |
| CC(C)C[C@H](NC(=O)c1ccccc1)C(=O)N[C@@H](CC(=O)O)C(=O)N[C@H](C(=O)N1CCC[C@H]1C(N)=O)C(C)C [896.35] | 16 | – | – |
| CC(C)C[C@H](NC(=O)Cc1ccccc1)C(=O)N[C@@H](CS)C(=O)N[C@@H](Cc1ccccc1)C(=O)N1CCC[C@@H]1C(N)=O [896.59] (PhAc-LCF[dP]-NH2) | 0 | – | – |
| CC(C)C[C@H](NC(=O)Cc1ccccc1)C(=O)N[C@@H](CC(=O)O)C(=O)N[C@H](C(=O)N1CCC[C@@H]1C(N)=O)c1ccccc1 [896.69] (PhAc-LD[Phg][dP]-NH2) | 61 | – | – |
| CC(C)C[C@H](NC(=O)c1ccccc1)C(=O)N[C@@H](CC(=O)O)C(=O)N[C@H](C(=O)N1CCC[C@@H]1C(N)=O)C(C)C [926.02] | 9.6 | – | – |
| O=C(O)C[C@H](NC1CCN(C(=O)Cc2ccccc2)CC1)C(=O)N[C@@H](Cc1ccccc1)C(=O)N1CCCC1 [992.01] | 0 | – | – |
| CC(C)C[C@H](NC(=O)Cc1ccccc1)C(=O)N[C@@H](CC(=O)O)C(=O)N[C@@H](Cc1ccccc1)C(N)=O [997.12] (PhAc-Leu-Asp-Phe-NH2) | .45 | – | – |
| CC(C)C[C@H](NC(=O)Cc1ccccc1)C(=O)N[C@@H](CC(=O)O)C(=O)NC1Cc2ccccc2N(CCN2CCOCC2)C1=O (some centres unmarked) [997.18] | 20 | – | – |
| CC(C)C[C@H](NC(=O)Cc1ccccc1)C(=O)NC(CC(=O)O)(CC(=O)O)C(=O)N[C@@H](Cc1ccccc1)C(=O)N1CCCCC1 [1026.01] | 0 | – | – |
| CC(C)C[C@H](NC(=O)Cc1ccccc1)C(=O)NC(C(=O)O)C(=O)N[C@@H](Cc1ccccc1)C(=O)N1CCCCC1 (some centres unmarked) [1026.02] | 0 | – | – |
| CC(C)C[C@H](NC(=O)Cc1ccccc1)C(=O)N[C@@H](CS(=O)(=O)O)C(=O)N[C@@H](Cc1ccccc1)C(=O)N1CCCCC1 [1026.06] (PhAc-Leu-[Cya]-Phe-Piperidide) | 0 | – | – |
| CC(C)C[C@H](NC(=O)Cc1ccccc1)C(=O)N[C@@H](CP(=O)(O)O)C(=O)N[C@@H](Cc1ccccc1)C(=O)N1CCCCC1 [1026.07] | 0 | – | – |
| CC(C)C[C@H](NC(=O)Cc1ccccc1)C(=O)N[C@@H](CS(N)(=O)=O)C(=O)N[C@@H](Cc1ccccc1)C(=O)N1CCCCC1 [1026.08] | 0 | – | – |
| CC(C)CN(CC(=O)Nc1ccccc1)C(=O)CN(CC(=O)O)C(=O)CN(Cc1ccccc1)C(=O)C1CCCC1 [1032.02] | .63 | – | – |
| CC(C)C[C@@H](CN[C@@H](CC(=O)O)C(=O)N[C@@H](Cc1ccccc1)C(=O)N1CCCCC1)NC(=O)Cc1ccccc1 [1041.01] | 0 | – | – |
| CC(C)C[C@H](NC(=O)Cc1ccccc1)C(=O)N[C@@H](CC(=O)O)C(=O)N1C(=O)N(Cc2ccccc2)C(=O)[C@H]1Cc1ccccc1 [1047.07] | .38 | – | – |
| CC(C)C[C@H](NC(=O)Cc1ccccc1)C(=O)N[C@@H](CC(=O)O)C(=O)N1C(=O)N(Cc2ccccc2)C(=O)[C@@H]1Cc1ccccc1 [1047.08] | .38 | – | – |
| CC(C)C[C@H](NC(=O)Cc1ccccc1)C(=O)N[C@@H](CC(=O)O)C(=O)N[C@@H](Cc1ccccc1)C(=O)NCCCO [1051.05] | 25 | – | – |
| CC(C)[C@@H]1CC[C@@H](C)C[C@H]1OCC(=O)N[C@@H](CC(=O)O)C(=O)N[C@@H](Cc1ccccc1)C(=O)N1CCC[C@@H]1C(N)=O [1056.06] | – | – | Relative Potency: 0 |

| Compound | Relative Potency [1] | Relative Potency (prodrug compound) | other results |
| --- | --- | --- | --- |
| NC(=O)[C@H]1CCCN1C(=O)[C@H](Cc1ccccc1)NC(=O)[C@H](CC(=O)O)NC(=O)CCCCC1CCSS1 (some centres unmarked) [1056.09] | 1.1 | – | – |
| O=C(O)CC(C(=O)N[C@@H](Cc1ccccc1)C(=O)N1CCCCC1)N1CC[C@H](NC(=O)Cc2ccccc2)C1=O (some centres unmarked) [1057.01] | .88 | – | – |
| CC(C)C[C@H](NC(=O)Cc1ccccc1)C(=O)N[C@@H](CC(=O)O)C(=O)NC1CCCCN(CC(N)=O)C1=O (some centres unmarked) [1057.06] | 97 | – | – |
| CC(C)C[C@H](NC(=O)Cc1ccccc1)C(=O)N[C@@H](CC(=O)O)C(=O)N[C@@H](CCc1ccccc1)C(=O)N1CCC[C@@H]1C(N)=O [1062.03] (PhAc-LD[hPhe][dP]-NH2) | 93.93 | – | – |
| CC(C)C[C@H](NC(=O)Cc1ccccc1)C(=O)N[C@@H](CC(=O)OCC(=O)OCc1ccccc1)C(=O)N[C@@H](Cc1ccccc1)C(=O)N1CCC[C@@H]1C(N)=O [1067.01] (PhAc-LD(X7)F[dP]-NH2) | – | .97 | – |
| CC(C)C[C@H](NC(=O)Cc1ccccc1)C(=O)N[C@@H](CC(=O)OCC(=O)O)C(=O)N[C@@H](Cc1ccccc1)C(=O)N1CCC[C@@H]1C(N)=O [1067.02] (PhAc-LD(X6)F[dP]-NH2) | – | .81 | – |
| CCCCCCCCCCCCCCCCCCNC(=O)CCCCCNC(=O)[C@@H]1CCCN1C(=O)[C@H](Cc1ccccc1)NC(=O)[C@H](CC(=O)O)NC(=O)[C@H](CC(C)C)NC(=O)Cc1ccccc1 [1068.01, phenylacetyl-Leu-Asp-Phe-Pro-NH(CH2)5 C (O)NHC18 H37] (PhAc-LDFP[Ahx]-NHOctadecyl) | – | .91 | – |
| CCCCCCCCCCCCCCCCCC(=O)OC1CCN(C(=O)[C@H](Cc2ccccc2)NC(=O)[C@H](CC(=O)O)NC(=O)[C@H](CC(C)C)NC(=O)Cc2ccccc2)CC1 [1068.05] | – | 0.63 | – |
| CCCCCCCCCC(=O)OC1CCN(C(=O)[C@H](Cc2ccccc2)NC(=O)[C@H](CC(=O)O)NC(=O)[C@H](CC(C)C)NC(=O)Cc2ccccc2)CC1 [1068.06] | – | .63 | – |
| CC(C)C[C@H](NC(=O)Cc1ccccc1)C(=O)N[C@@H](CC(=O)OCc1ccccc1)C(=O)N[C@@H](Cc1ccccc1)C(=O)N1CCC[C@@H]1C(N)=O [1068.07] (PhAc-LD(OBn)F[dP]-NH2) | – | 0 | – |
| CCCCCCCCCCOC(=O)C[C@H](NC(=O)[C@H](CC(C)C)NC(=O)Cc1ccccc1)C(=O)N[C@@H](Cc1ccccc1)C(=O)N1CCC[C@@H]1C(N)=O [1068.09] (PhAc-LD(ODecyl)F[dP]-NH2) | – | 0 | – |
| CCCCCCCCCCCCOC(=O)C[C@H](NC(=O)[C@H](CC(C)C)NC(=O)Cc1ccccc1)C(=O)N[C@@H](Cc1ccccc1)C(=O)N1CCC[C@@H]1C(N)=O [1068.10] (PhAc-LD(X5)F[dP]-NH2) | – | 0 | – |
| CCCCCCCCCCCCCCOC(=O)C[C@H](NC(=O)[C@H](CC(C)C)NC(=O)Cc1ccccc1)C(=O)N[C@@H](Cc1ccccc1)C(=O)N1CCC[C@@H]1C(N)=O [1068.11] (PhAc-LD(X1)F[dP]-NH2) | – | 0 | – |
| CCCCCCCCCCCCCCCCCCOC(=O)C[C@H](NC(=O)[C@H](CC(C)C)NC(=O)Cc1ccccc1)C(=O)N[C@@H](Cc1ccccc1)C(=O)N1CCC[C@@H]1C(N)=O [1068.12] (PhAc-LD(X8)F[dP]-NH2) | – | 0 | – |
| CCN(CC)C(=O)COC(=O)C[C@H](NC(=O)[C@H](CC(C)C)NC(=O)Cc1ccccc1)C(=O)N[C@@H](Cc1ccccc1)C(=O)N1CCC[C@@H]1C(N)=O [1068.13] (PhAc-LD(X4)F[dP]-NH2) | – | 0 | – |
| CC(C)C[C@H](NC(=O)Cc1ccccc1)C(=O)N[C@@H](CC(=O)O)C(=O)N[C@@H](Cc1ccccc1)C(=O)N1CCSCC1 [1111.02] | 450 | – | – |
| CC(C)C[C@H](NC(=O)Cc1ccccc1)C(=O)N[C@@H](CC(=O)O)C(=O)N[C@@H](Cc1ccccc1)C(=O)N1CCN(CCOCCO)CC1 [1111.07] | 510 | – | – |
| CCOC(=O)C[C@H](NC(=O)[C@H](CC(C)C)NC(=O)Cc1ccccc1)C(=O)N[C@@H](Cc1ccccc1)C(=O)N1CCC[C@@H]1C(N)=O [1190.01] (PhAc-LD(OEt)F[dP]-NH2) | – | 0 | – |
| CC(C)C[C@H](NC(=O)Cc1ccccc1)C(=O)N[C@@H](CC(=O)O)C(=O)N(C)[C@@H](Cc1ccccc1)C(=O)N1CCC[C@@H]1C(N)=O [1190.05] (PhAc-LD[NMeF][dP]-NH2) | 0 | – | – |

Source: patent US5821231A, “CS-1 peptidomimetics, compositions and methods of using same” (Cytel Corporation, priority 1995, dated 1998)
